Consider 2 compounds from US20130079373A1, “Substituted Methanesulfonamide Derivatives as Vanilloid Receptor Ligands” (priority 2011, published 2013).

The assay has as its target T1, vanilloid receptor 1 (VR1/TRPV1 receptor) (Homo sapiens, UniProt Q8NER1).
T1 construct: expressed in transfected cells; host or cells: CHO K1
Briefly: Functional testing on the vanilloid receptor 1 (FLIPR Ca2+ influx assay, capsaicin stimulation). Format: cell-based. To be noted: Cap = capsaicin; human being; Ki from IC50 by the Cheng-Prusoff equation; read-out: (f) Ki (human being) [nM] Cap. The protocol: Furthermore, preference may be given to compounds according to the invention that cause a 50 percent displacement of capsaicin, which is present at a concentration of 100 nM, in a FLIPR assay with CHO K1 cells which were transfected with the human VR1 gene at a concentration of less than 2,000 nM, preferably less than 1,000 nM, particularly preferably less than 300 nM, most particularly preferably less than 100 nM, even more preferably less than 75 nM, additionally preferably less than 50 nM, most preferably less than 10 nM.
In the process, the Ca^2+ influx is quantified in the FLIPR assay with the aid of a Ca^2+-sensitive dye (type Fluo-4, Molecular Probes Europe BV, Leiden, the Netherlands) in a fluorescent imaging plate reader (FLIPR, Molecular Devices, Sunnyvale, USA), as described hereinafter.
I. Functional Testing Carried Out on the Vanilloid Receptor 1 (VR1/TRPV1 Receptor) […]
The number of cells in the suspension is set to 3×10^5 per mL and 150 μL of this suspension are in each case introduced into a recess in the cell culture plates coated as described hereinbefore. In the incubator the plates are left for two to three days at 37° C., 5% by volume of CO2 and 95% relative humidity. Subsequently, the cells are loaded with 2 μM of Fluo-4 and 0.01% by volume of Pluronic F127 (Molecular Probes Europe BV, Leiden, the Netherlands) in HBSS buffer (Hank's buffered saline solution, Gibco Invitrogen GmbH, Karlsruhe, Germany) for 30 min at 37° C., washed 3 times with HBSS buffer and after further incubation for 15 minutes at room temperature used for Ca^2+ measurement in a FLIPR assay. The Ca^2+ dependent fluorescence is in this case measured before and after the addition of substances (λex=488 nm, λem=540 nm). Quantification is carried out by measuring the highest fluorescence intensity (FC, fluorescence counts) over time.
The FLIPR protocol consists of 2 substance additions. First the compounds to be tested (10 μM) are pipetted onto the cells and the Ca^2+ influx is compared with the control (capsaicin 10 μM). This provides the result in % activation based on the Ca^2+ signal after the addition of 10 μM of capsaicin (CP). After 5 minutes' incubation, 100 nM of capsaicin are applied and the Ca^2+ influx is also determined.
Desensitising agonists and antagonists lead to suppression of the Ca^2+ influx. The % inhibition is calculated compared to the maximum achievable inhibition with 10 μM of capsazepine.
Triple analyses (n=3) are carried out and repeated in at least 3 independent experiments (N=4).
Starting from the percentage displacement caused by different concentrations of the compounds to be tested of general formula I, IC50 inhibitory concentrations which cause a 50-percent displacement of capsaicin were calculated. Ki values for the test substances were obtained by conversion by means of the Cheng-Prusoff equation (Cheng, Prusoff; Biochem. Pharmacol. 22, 3099-3108, 1973).
The affinity of the compounds according to the invention for the vanilloid receptor 1 (VR1/TRPV1 receptor) was determined as described hereinbefore (pharmacological method I).

T1 sequence (Q8NER1 whole entry): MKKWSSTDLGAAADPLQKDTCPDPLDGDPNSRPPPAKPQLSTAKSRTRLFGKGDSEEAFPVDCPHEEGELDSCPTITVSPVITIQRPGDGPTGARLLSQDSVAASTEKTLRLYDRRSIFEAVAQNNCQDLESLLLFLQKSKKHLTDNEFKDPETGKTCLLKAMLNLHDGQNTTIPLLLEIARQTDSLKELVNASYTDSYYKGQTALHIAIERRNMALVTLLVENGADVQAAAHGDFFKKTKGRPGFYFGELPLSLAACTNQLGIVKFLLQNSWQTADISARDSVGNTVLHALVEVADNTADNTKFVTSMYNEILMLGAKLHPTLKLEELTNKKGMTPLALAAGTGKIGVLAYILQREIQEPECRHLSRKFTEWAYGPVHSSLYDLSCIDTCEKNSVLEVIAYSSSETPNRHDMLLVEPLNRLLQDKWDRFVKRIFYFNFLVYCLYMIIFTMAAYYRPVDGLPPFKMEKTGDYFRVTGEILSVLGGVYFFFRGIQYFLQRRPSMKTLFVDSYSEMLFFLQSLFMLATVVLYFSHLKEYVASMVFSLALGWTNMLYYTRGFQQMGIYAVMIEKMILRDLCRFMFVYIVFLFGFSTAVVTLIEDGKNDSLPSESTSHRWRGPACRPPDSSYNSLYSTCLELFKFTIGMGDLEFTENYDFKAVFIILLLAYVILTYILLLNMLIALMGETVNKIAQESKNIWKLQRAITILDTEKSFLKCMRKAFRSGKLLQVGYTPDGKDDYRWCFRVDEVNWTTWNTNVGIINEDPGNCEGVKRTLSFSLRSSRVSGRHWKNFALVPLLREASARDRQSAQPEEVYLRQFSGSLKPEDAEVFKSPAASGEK

A word on the Ki: it is a measure of affinity in units of concentration, obtained from inhibition or displacement. Consider `CC(C(=O)NCc1ccc(C(F)(F)F)nc1-c1ccoc1)c1ccc(CNS(C)(=O)=O)c(F)c1` (centres unmarked) [Example 46, 2-(3-fluoro-4-(methylsulfonamidomethyl)phenyl)-N-((2-(furan-3-yl)-6-(trifluoromethyl)pyridin-3-yl)methyl)propanamide], for which the Ki was 46 nM. Consider `CC(C(=O)NCc1ccc(C(F)(F)F)nc1-c1cccs1)c1ccc(CNS(C)(=O)=O)c(F)c1` (centres unmarked) [Example 47, 2-(3-fluoro-4-(methylsulfonamidomethyl)phenyl)-N-((2-(thiophen-2-yl)-6-(trifluoromethyl)pyridin-3-yl)methyl)propanamide], for which the Ki is 41 nM.
